Measurements taken from the supplement of paper PMC11061612.

What was measured:
Experiment in all cases: Bliss excess, mean over the matrix (fraction); higher = more synergy
[1] = test system: COR-L105 (Lung Adenocarcinoma)
Outline: (§1)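 Cell lines in DMEM/F12 or RPMI with 10% FBS were plated in 1536-well plates, held 24 hours at 37°C, 5% CO2, then given two-drug dose matrices for 72 hours (DMSO typically 0.2%). Viability was read by CellTiter-Glo 2.0 luminescence and scaled as inhibition from 0 (vehicle wells) to 1 (blank wells). Combination Emax is the second-highest inhibition in the matrix; Bliss excess is observed combination effect minus expected EA + EB − EA·EB, EA and EB being single-agent effects.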

[2] = test system: OVKATE (Ovarian Carcinoma)
Outline: as §1

[3] = test system: SW1463 (Colorectal Carcinoma)
Outline: as §1

[4] = test system: RPMI-8402 (T-Lymphoblastic Leukemia)
Outline: as §1

[5] = test system: SBC-3 (Small Cell Lung Carcinoma)
Outline: as §1

[6] = test system: NCI-H1435 (Non-Small Cell Lung Carcinoma)
Outline: as §1

GCIY (Gastric Carcinoma) = test system: GCIY (Gastric Carcinoma)
Outline: as §1

C32 (Melanoma) = test system: C32 (Melanoma)
Outline: as §1

[7] = test system: BC-1 (B-Cell Non-Hodgkin's Lymphoma)
Outline: as §1

DK-MG (Glioblastoma) = test system: DK-MG (Glioblastoma)
Outline: as §1

[8] = test system: SCC90 (Head and Neck Carcinoma)
Outline: as §1

[9] = test system: Daudi (Burkitt's Lymphoma)
Outline: as §1

[10] = test system: HT-1197 (Bladder Carcinoma)
Outline: as §1

[11] = test system: NCI-H1944 (Lung Adenocarcinoma)
Outline: as §1

[12] = test system: NCI-H2170 (Squamous Cell Lung Carcinoma)
Outline: as §1

[13] = test system: SUP-HD1 (Hodgkin's Lymphoma)
Outline: as §1

[14] = test system: SBC-5 (Small Cell Lung Carcinoma)
Outline: as §1

[15] = test system: SNU-1 (Gastric Carcinoma)
Outline: as §1

SK-N-DZ (Neuroblastoma) = test system: SK-N-DZ (Neuroblastoma)
Outline: as §1

Compound	Bliss excess [1]	Bliss excess [2]	Bliss excess [3]	Bliss excess [4]	Bliss excess [5]	Bliss excess [6]	Bliss excess (GCIY (Gastric Carcinoma))	Bliss excess (C32 (Melanoma))	Bliss excess [7]	Bliss excess (DK-MG (Glioblastoma))	Bliss excess [8]	Bliss excess [9]	Bliss excess [10]	Bliss excess [11]	Bliss excess [12]	Bliss excess [13]	Bliss excess [14]	Bliss excess [15]	Bliss excess (SK-N-DZ (Neuroblastoma))
CN(CCO)CC[C@H](CSc1ccccc1)Nc1ccc(S(=O)(=O)NC(=O)c2ccc(N3CCC([C@@H](O)c4ccccc4-c4ccc(Cl)cc4)CC3)cc2)cc1S(=O)(=O)C(F)(F)F [AZD4320] + CS(=O)(=O)CCNCc1ccc(-c2ccc3ncnc(Nc4ccc(OCc5cccc(F)c5)c(Cl)c4)c3c2)o1 [Lapatinib] (first compound max 1 µM, 7x7, partner max 10 µM)	-0.0212	-0.0082	0.105	0.0949	0.052	0.0765	0.0352	-0.0269	0.0372										
O=C(c1cc(Cc2n[nH]c(=O)c3ccccc23)ccc1F)N1CCN(C(=O)C2CC2)CC1 [Olaparib] + CC1(C)CCC(CN2CCN(c3ccc(C(=O)NS(=O)(=O)c4ccc(NCC5CCOCC5)c([N+](=O)[O-])c4)c(Oc4cnc5[nH]ccc5c4)c3)CC2)=C(c2ccc(Cl)cc2)C1 [Venetoclax] (first compound max 10 µM, 7x7, partner max 1 µM)	-0.0328	-0.0355	-0.0111	-0.0163	-0.0063	-0.01	-0.0547	-0.0521	0.0012										
CS(=O)(=O)CCNCc1ccc(-c2ccc3ncnc(Nc4ccc(OCc5cccc(F)c5)c(Cl)c4)c3c2)o1 [Lapatinib] + Cn1cnc2c(F)c(Nc3ccc(Br)cc3Cl)c(C(=O)NOCCO)cc21 [Selumetinib] (first compound max 10 µM, 7x7, partner max 10 µM)	0.0224	-0.0514	0.0681	-0.031	-0.0109	0.0172	-0.0067	-0.0418	0.0547										
O=C(c1cc(Cc2n[nH]c(=O)c3ccccc23)ccc1F)N1CCN(C(=O)C2CC2)CC1 [Olaparib] + Cc1c2c(nn1C)CSCc1cc(n(C)n1)CSc1cc(c3ccccc3c1)OCCCc1c(C(=O)O)n(C)c3c-2c(Cl)ccc13 [AZD5991] (first compound max 10 µM, 7x7, partner max 1 µM)	-0.0494	-0.0525	-0.0325	-0.0419	-0.0134	-0.0055	-0.041	-0.0585	0.0737										
C[C@@H]1COCCN1c1cc(C2([S@](C)(=N)=O)CC2)nc(-c2ccnc3[nH]ccc23)n1 [AZD6738] + C1CC(C1)(C(=O)[O-])C(=O)[O-].N.N.[Pt+2] [Carboplatin] (first compound max 10 µM, 7x7, partner max 10 µM)	-0.0272	-0.0642	-0.0446	-0.0461	-0.031	-0.0103	-0.066	-0.0133	-0.0173										
Cc1c2c(nn1C)CSCc1cc(n(C)n1)CSc1cc(c3ccccc3c1)OCCCc1c(C(=O)O)n(C)c3c-2c(Cl)ccc13 [AZD5991] + Cc1cc2ncnn2cc1Nc1ncc2c(n1)n(C1CCOCC1)c(=O)n2C [AZD7648] (first compound max 1 µM, 7x7, partner max 10 µM)	-0.0645	-0.0347	-0.015		-0.0801	-0.0055	-0.0242	-0.0308	0.0172	-0.101	-0.029	0.0041	-0.059	-0.039	-0.0144	-0.104	-0.0447	-0.0307	-0.0564
C=CCn1c(=O)c2cnc(Nc3ccc(N4CCN(C)CC4)cc3)nc2n1-c1cccc(C(C)(C)O)n1 [AZD1775] + CCc1c2c(nc3ccc(O)cc13)-c1cc3c(c(=O)n1C2)COC(=O)[C@]3(O)CC [SN-38] (first compound max 1 µM, partner max 0.3 µM)	-0.0262	-0.079	-0.0287	0.0012	-0.0297	0.0158	-0.0431	-0.0375	-0.0252										
C[C@@H](Nc1cc(F)cc(F)c1)c1cc(C(=O)N(C)C)cc2c(=O)cc(N3CCOCC3)oc12 [AZD8186] + CC(=O)c1c(C)c2cnc(Nc3ccc(N4CCNCC4)cn3)nc2n(C2CCCC2)c1=O [Palbociclib] (first compound max 10 µM, 7x7, partner max 10 µM)	0.0059	-0.0096	0.101	0.0013	0.0742	0.0802	0.0171	0.04	0.0867										
Cc1c2c(nn1C)CSCc1cc(n(C)n1)CSc1cc(c3ccccc3c1)OCCCc1c(C(=O)O)n(C)c3c-2c(Cl)ccc13 [AZD5991] + CS(=O)(=O)CCNCc1ccc(-c2ccc3ncnc(Nc4ccc(OCc5cccc(F)c5)c(Cl)c4)c3c2)o1 [Lapatinib] (first compound max 1 µM, 7x7, partner max 10 µM)	-0.0414	-0.0552	0.0331	0.0115	-0.0235	-0.0063	0.013	-0.0014	0.0211										
CC1(C)CCC(CN2CCN(c3ccc(C(=O)NS(=O)(=O)c4ccc(NCC5CCOCC5)c([N+](=O)[O-])c4)c(Oc4cnc5[nH]ccc5c4)c3)CC2)=C(c2ccc(Cl)cc2)C1 [Venetoclax] + CS(=O)(=O)CCNCc1ccc(-c2ccc3ncnc(Nc4ccc(OCc5cccc(F)c5)c(Cl)c4)c3c2)o1 [Lapatinib] (first compound max 1 µM, 7x7, partner max 10 µM)	-0.0535	-0.035	0.0659	-0.0163	-0.0339	0.0073	-0.0655	-0.0443	0.022										
C[C@@H](Oc1cc(-c2cnn(C3CCNCC3)c2)cnc1N)c1c(Cl)ccc(F)c1Cl [Crizotinib] + Cn1cnc2c(F)c(Nc3ccc(Br)cc3Cl)c(C(=O)NOCCO)cc21 [Selumetinib] (first compound max 10 µM, 7x7, partner max 10 µM)	-0.0146	-0.0392	-0.0443	-0.0606	-0.0502	-0.0088	-0.0266	0.0411	-0.045										
C[C@@H]1COCCN1c1cc(C2([S@](C)(=N)=O)CC2)nc(-c2ccnc3[nH]ccc23)n1 [AZD6738] + Nc1ccn([C@@H]2O[C@H](CO)[C@@H](O)C2(F)F)c(=O)n1 [Gemcitabine] (first compound max 10 µM, 7x7, partner max 0.3 µM)	0.003	-0.0172	-0.0128	0.0319	0.0306	0.0799	-0.0362	-0.0247	0.0099										
C[C@@H](Oc1cc(-c2cnn(C3CCNCC3)c2)cnc1N)c1c(Cl)ccc(F)c1Cl [Crizotinib] + CC1=C(C(=CC=C1)Cl)NC(=O)C2=CN=C(S2)NC3=CC(=NC(=N3)C)N4CCN(CC4)CCO [Dasatinib] (first compound max 10 µM, 7x7, partner max 2 µM)	-0.0313	0.06	-0.0926	0.0006	0.0493	0.0039	0.0537	-0.0461	0.0312										
C[C@@H](Nc1cc(F)cc(F)c1)c1cc(C(=O)N(C)C)cc2c(=O)cc(N3CCOCC3)oc12 [AZD8186] + C1CN(CCC1(C(=O)N[C@@H](CCO)C2=CC=C(C=C2)Cl)N)C3=NC=NC4=C3C=CN4 [AZD5363] (first compound max 10 µM, 7x7, partner max 10 µM)	0.0189	-0.0281	-0.016	-0.0783	0.0272	0.0283	-0.012	-0.0235	0.0374										
Cc1nc(-c2cn3c(n2)-c2ccc(-c4cnn(C(C)(C)C(N)=O)c4)cc2OCC3)n(C(C)C)n1 [Taselisib] + O=C(Nc1ccc2[nH]nc(-c3ccncc3)c2c1)[C@@H]1CCN(CC(=O)N2CCN(c3ccc(-c4ncccn4)cc3)CC2)C1 [SCH772984] (first compound max 10 µM, 7x7, partner max 5 µM)	0.052	0.0487	0.0102	0.0802	0.11	0.0352	-0.0131	0.0706	0.139										
CCc1c2c(nc3ccc(O)cc13)-c1cc3c(c(=O)n1C2)COC(=O)[C@]3(O)CC [SN-38] + O=C(c1cc(Cc2n[nH]c(=O)c3ccccc23)ccc1F)N1CCN(C(=O)C2CC2)CC1 [Olaparib] (first compound max 0.3 µM, 7x7, partner max 10 µM)	-0.022	-0.0113	0.0557	0.0767	0.0513	0.0243	0.0875	0.117	0.0369	0.0193	0.0728	0.122	0.0465	0.025	0.0726	-0.0168		0.0064	
CS(=O)(=O)CCNCc1ccc(-c2ccc3ncnc(Nc4ccc(OCc5cccc(F)c5)c(Cl)c4)c3c2)o1 [Lapatinib] + NC1(c2ccc(-c3nc4ccn5c(=O)[nH]nc5c4cc3-c3ccccc3)cc2)CCC1 [MK-2206] (first compound max 10 µM, 7x7, partner max 10 µM)	0.014	-0.031	0.0833	0.0064	0.0258	0.0601	0.0484	0.0188	0.0584		0.0358			0.0376			-0.0051		
O=C(c1cc(Cc2n[nH]c(=O)c3ccccc23)ccc1F)N1CCN(C(=O)C2CC2)CC1 [Olaparib] + COc1nnc2ccc(N3CCC(c4ccc(OCCN5CCN(C)C(=O)[C@H]5C)cc4)CC3)nn12 [AZD5153] (first compound max 10 µM, 7x7, partner max 1 µM)	-0.0689	-0.0686	-0.0601	-0.0277	-0.0786	-0.022	-0.0248	-0.0595	-0.0048										
